From patent US6207399A, “Methods of determining endogenous thrombin potential (ETP) and thrombin substrates for use in said methods” (Hemker; Hendrik Coenraad, priority 1995, dated 2001)
Like-named read-outs stand apart in the source and are kept apart here. Square brackets hold non-standard residues; d marks the D form. Peptide text beside a SMILES is read from it. * marks the point of attachment. pNA = O=[N+]([O-])c1ccc(N*)cc1; Nle = CCCC[CH](N)C(=O)O; Pip = O=C(O)[CH]1CCCCN1; Boc = CC(C)(C)OC(=O)*; Bz = O=C(c1ccccc1)*; CH2Cl = ClC*

Assays:
[1] = biological target: T1, factor Xa (Homo sapiens, UniProt P00742); experiment: Kinetic parameters of hydrolysis of the substrates by factor Xa in buffer A at 37° C. (Example 4, Table 3); format: biochemical; conditions: buffer A, 37° C., 50 nM factor Xa
T1 construct: human factor Xa samples; gift of Dr. T. Lindhout (University of Limburg, Maastricht)
Procedure: (§1) Kinetic parameters: The hydrolysis experiments were run in buffer A at 37° C. The liberation of p-nitroaniline was monitored at 405 nm in a dual wavelength (405-546 nm) spectrophotometer made in our workshop, using a personal computer for data recording. In a polystyrene microcuvette (total volume 500 μL), buffer A and substrate solution were added to obtain a final substrate concentration between 200 to 2000 μM. After 5 min of incubation at 37° C., enzyme solution was added to achieve a final concentration between 0.5 to 50 nM. The measurement was carried out at 37° C. in a thermostated cuvette-holder. The Michaelis constant (Km) and the catalytic constant (kcat) were obtained by measuring the initial reaction velocities at different substrate concentrations. The data obtained were fitted by linear regression on the Michaelis-Menten equation.
(§2) Kinetic parameters: The Km and kcat values for each substrate were determined at an enzyme concentration of 0.5-50 nM (thrombin) and 50 nM factor Xa. From the initial reaction velocities, measured for at least six substrate concentrations between 200 and 2000 μM, the Km and kcat values were calculated by linear regression on the Michaelis-Menten curve. Table 3 gives an overview of the kinetic parameters of the different substrates hydrolyzed by thrombin and by factor Xa in buffer A.

[2] = tested on: thrombin; conditions: Serbio patent EP-B-0 280 610; cited from earlier work
[3] = biological target: T2, thrombin (Homo sapiens, UniProt P00734); experiment: Kinetic parameters of hydrolysis of the substrates by thrombin in buffer A at 37° C. (Example 4, Table 3); format: biochemical; parameters: Pure human α-thrombin; gift of Dr. T. Lindhout (University of Limburg, Maastricht); conditions: buffer A, 37° C.
Procedure: as §1, §2

[4] = tested on: protein C; conditions: Serbio patent EP-B-0 280 610; cited from earlier work
[5] = tested on: plasmin; conditions: Serbio patent EP-B-0 280 610; cited from earlier work
[6] = biological target: T3, human α-thrombin (Homo sapiens, UniProt P00734); experiment: Kinetics of hydrolysis of substrates by human α-thrombin in buffer A at 37° C. (Example 2, Table 1); format: biochemical
T3 construct: Pure human α-thrombin; gift of Dr. T. Lindhout (University of Limburg, Maastricht)
Procedure: as §1, with “between 1” for “between 200”, “to 100” for “to 50”, “measuring” for “measuring the”
(§3) Kinetic parameters: In a preliminary experiment, the substrate was hydrolyzed under the following conditions: enzyme concentration: 10 to 20 nM, substrate concentration: 200 μM in buffer A to get an impression of the initial velocity. […] The results are given in table 1 and 2 for thrombin and factor Xa respectively. The Km and kcat for each substrate were determined from the initial velocities measured for at least six substrate concentrations in the concentration range as given. The enzyme concentration used gives a good signal to noise ratio. The data given are obtained from one or two experiments. The data from table 1 and 2 were only used as the first selection criterion to get a rough impression of the hydrolysis behaviour. Notwithstanding the preliminary character of the measurement it was helpful in the design of the substrates of our interest.

[7] = tested on: Factor Xa; conditions: Serbio patent EP-B-0 280 610; cited from earlier work
[8] = biological target: T1, factor Xa; experiment: Kinetics of hydrolysis of substrates by human factor Xa in buffer A at 37° C. (Example 2, Table 2); format: biochemical
Procedure: as §1, with “between 1” for “between 200”, “to 100” for “to 50”, “measuring” for “measuring the”
as §3

[9] = Water solubility of the substrates; format: physicochemical
[10] = tested on: thrombin; conditions: Svendsen et al; cited from earlier work
[11] = biological target: T2, thrombin; parameters: Pure human α-thrombin; gift of Dr. T. Lindhout (University of Limburg, Maastricht); conditions: SQ68 reference, same values as Table 1 entry 17 (from Hemker et al. 1993); cited from earlier work
[12] = biological target: T3, human α-thrombin; conditions: from Hemker H.C. et al. (1993); cited from earlier work
[13] = biological target: T1, factor Xa; conditions: SQ68 reference, same values as Table 2 entry 17; cited from earlier work
[14] = biological target: T1, factor Xa; conditions: entry marked ^a (Hemker et al. 1993, footnote of Table 1); cited from earlier work
[15] = biological target: T2, thrombin; conditions: Angliker et al; cited from earlier work

T1 sequence (P00742 41-179 limits assumed): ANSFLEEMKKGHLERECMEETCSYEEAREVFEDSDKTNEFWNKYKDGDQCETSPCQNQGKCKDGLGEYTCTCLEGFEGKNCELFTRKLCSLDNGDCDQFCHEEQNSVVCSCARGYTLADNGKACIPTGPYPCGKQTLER
T1 sequence (P00742 235-488 limits assumed): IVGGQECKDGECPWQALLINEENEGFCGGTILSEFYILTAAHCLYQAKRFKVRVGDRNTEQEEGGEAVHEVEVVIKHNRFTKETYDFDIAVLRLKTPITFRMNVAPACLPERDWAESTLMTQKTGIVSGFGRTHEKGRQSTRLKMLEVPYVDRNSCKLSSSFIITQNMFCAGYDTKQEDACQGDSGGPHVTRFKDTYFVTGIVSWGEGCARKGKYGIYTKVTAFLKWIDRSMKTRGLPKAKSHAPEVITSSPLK

COC(=O)CC(=O)N[C@H](C(=O)N[C@@H](CCCNC(=N)N)C(=O)Nc1ccc([N+](=O)[O-])cc1)C(C)C.Cl [MZ-Val-Arg-pNA.HCl]
Factor Xa kcat [1]: 10.1 s⁻¹ | Factor Xa kcat /Km [1]: 2470 M/s | Km [1]: 4080 µM | rate of hydrolysis for thrombin [2]: 0.21 | Km [3]: 1010 µM | Thrombin kcat [3]: 14.4 s⁻¹ | Thrombin kcat /Km [3]: 14300 M/s | rate of hydrolysis for protein C [4]: 0.12 | rate of hydrolysis for plasmin [5]: 0.08 | Km [6]: 1010 µM | kcat [6]: 14.4 s⁻¹ | kcat /Km [6]: 14300 M/s | rate of hydrolysis for Factor Xa [7]: 0.03 | Km [8]: 2570 µM | kcat [8]: 6.42 s⁻¹ | kcat /Km [8]: 2500 M/s

CCCC[C@H](NC(=O)[C@@H]1CCCN1C(=O)[C@H](N)Cc1ccccc1)C(=O)Nc1ccc([N+](=O)[O-])cc1.Cl [Substrate 7] (H-[dF]-Pro-[Nle]-pNA)
water solubility [9]: restricted water solubility

CC(C)[C@H](NC(=O)CNC(=O)OC(C)(C)C)C(=O)N[C@@H](CCCNC(=N)N)C(=O)Nc1ccc([N+](=O)[O-])cc1.Cl [Boc-Gly-Val-Arg-pNA.HCl] (Boc-Gly-Val-Arg-pNA)
Factor Xa kcat [1]: 3.51 s⁻¹ | Factor Xa kcat /Km [1]: 1310 M/s | Km [1]: 2680 µM | Km [3]: 244 µM | Thrombin kcat [3]: 11.2 s⁻¹ | Thrombin kcat /Km [3]: 45900 M/s | Km [6]: 244 µM | kcat [6]: 11.2 s⁻¹ | kcat /Km [6]: 45900 M/s | Km [8]: 959 µM | kcat [8]: 1.90 s⁻¹ | kcat /Km [8]: 1980 M/s

CCCCC(NC(=O)C1CCCCN1C(=O)C(N)Cc1ccccc1)C(=O)Nc1ccc([N+](=O)[O-])cc1.Cl (centres unmarked) [Substrate 6] (H-Phe-[Pip]-[Nle]-pNA; configuration not given here)
water solubility [9]: restricted water solubility

CC(C)[C@H](NC(=O)CN)C(=O)N[C@@H](CCCNC(=N)N)C(=O)Nc1ccc([N+](=O)[O-])cc1.Cl.Cl [2HCl.H-Gly-Val-Arg-pNA] (H-Gly-Val-Arg-pNA)
Factor Xa kcat [1]: 2.84 s⁻¹ | Factor Xa kcat /Km [1]: 649 M/s | Km [1]: 4380 µM | Km [3]: 3230 µM | Thrombin kcat [3]: 25.4 s⁻¹ | Thrombin kcat /Km [3]: 7880 M/s | Km [6]: 1640 µM | kcat [6]: 16.54 s⁻¹ | kcat /Km [6]: 10100 M/s | Km [8]: 2680 µM | kcat [8]: 3.51 s⁻¹ | kcat /Km [8]: 1310 M/s

CC(C)[C@H](NC(=O)[C@H](Cc1ccccc1)NC(=O)c1ccccc1)C(=O)N[C@@H](CCCNC(=N)N)C(=O)Nc1ccc([N+](=O)[O-])cc1 [Benzoyl-Phe-Val-Arg-p-nitroanilide] (Bz-Phe-Val-Arg-pNA)
kcat /Km [10]: 90×10^-7 [(NIH units/liter)s]^-1

COC(=O)CC(=O)N1CCC[C@H]1C(=O)N[C@@H](CCCNC(=N)N)C(=O)Nc1ccc([N+](=O)[O-])cc1 [CH3 O--CO--CH2 --CO-L-Pro-L-Arg-pNA]
rate of hydrolysis for thrombin [2]: 0.68 | rate of hydrolysis for protein C [4]: 0.83 | rate of hydrolysis for plasmin [5]: 0.230 | rate of hydrolysis for Factor Xa [7]: 0.14

Cl.N=C(N)NCCC[C@H](NC(=O)CNS(=O)(=O)c1ccc2ccccc2c1)C(=O)Nc1ccc([N+](=O)[O-])cc1 [Substrate 25]
water solubility [9]: restricted water solubility

COC(=O)CC(=O)NC(C)(C)C(=O)N[C@@H](CCCNC(=N)N)C(=O)Nc1ccc([N+](=O)[O-])cc1.Cl [MZ-Aib-Arg-pNA.HCl, malonyl-α-aminoisobutyryl-arginine p-nitroanilide methyl ester monohydrochloride]
rate of hydrolysis for thrombin [2]: 0.04 | Km [11]: 830 µM | Thrombin kcat [11]: 0.46 s⁻¹ | Thrombin kcat /Km [11]: 554 M/s | Km [12]: 830 µM | kcat [12]: 0.46 s⁻¹ | kcat /Km [12]: 554 M/s | rate of hydrolysis for protein C [4]: 0.03 | Factor Xa kcat [13]: 2.9 s⁻¹ | Factor Xa kcat /Km [13]: 738 M/s | Km [13]: 3940 µM | rate of hydrolysis for plasmin [5]: 0.02 | Km [14]: 3940 µM | kcat [14]: 2.9 s⁻¹ | kcat /Km [14]: 738 M/s | rate of hydrolysis for Factor Xa [7]: 0.01

CC(C)[C@H](NC(=O)c1ccccc1)C(=O)N[C@@H](CCCNC(=N)N)C(=O)Nc1ccc([N+](=O)[O-])cc1 [benzoyl-Val-Arg-p-nitroanilide] (Bz-Val-Arg-pNA)
factor by which poorer substrate for thrombin than Benzoyl-Phe-Val-Arg-p-nitroanilide [10]: ≥ 100

COC(=O)CC(=O)N1C[C@H](O)C[C@H]1C(=O)N[C@@H](CCCNC(=N)N)C(=O)Nc1ccc([N+](=O)[O-])cc1 [CH3 O--CO--CH2 --CO-L-4Hyp-L-Arg-pNA]
rate of hydrolysis for thrombin [2]: 0.61 | rate of hydrolysis for protein C [4]: 0.88 | rate of hydrolysis for plasmin [5]: 1.12 | rate of hydrolysis for Factor Xa [7]: 0.34

CC(=O)NCC(=O)N[C@H](C(=O)N[C@@H](CCCNC(=N)N)C(=O)CCl)C(C)C [Ac-Gly-Val-Arg-CH2 Cl] (Ac-Gly-Val-Arg-CH2Cl)
ki value, times lower than that for D-Phe-Pro-Arg-CH2 Cl [15]: 3×10^4

CC(C)[C@H](NC(=O)[C@@H](N)Cc1ccccc1)C(=O)N[C@@H](CCCNC(=N)N)C(=O)Nc1ccc([N+](=O)[O-])cc1 [H-Phe-Val-Arg-p-nitroanilide] (H-Phe-Val-Arg-pNA)
factor by which poorer substrate for thrombin than Benzoyl-Phe-Val-Arg-p-nitroanilide [10]: ≥ 100
